The source of these data is patent publication US9394314B2, “8′-hydroxy-dihydroergotamine compounds and compositions” (priority 2012, dated 2016).

The target in data set [1] is T1, human 5-HT1D receptor (Homo sapiens, UniProt P28221).
T1 construct: purchased Euroscreen; host or cells: CHO-K1
As to the kind of experiment: Radioligand binding assay (competition and kinetics), CHO-K1 membranes. As to the method: (§1) For kinetics of radioligand competitive binding, serial dilutions were performed from master solution in 100% DMSO to obtain intermediate concentrations 200-fold higher than the concentrations to be tested. Each test sample was diluted 100-fold in the assay buffer and dispensed into the test plate.
5-HT1D Radioligand Binding Assay
Assay buffer: 50 mM Tris (pH 7.4), 4 mM CaCl2, 0.1% ascorbic acid
(§2) Washing buffer: 50 mM Tris (pH 7.4)
Membrane: recombinant CHO-K1-5-HT1D membranes thawed on ice and diluted in assay buffer (10 μg/well)
Ligand: 5-HT (Sigma, H-9523)
(§3) Determination of IC50 and Ki constant for each test compound. […] After washing the filters 5 times with 0.5 mL of ice-cold washing buffer, 50 μL of Microscint 20 (Packard) were added to the filters and the plates were incubated 15 min on an orbital shaker and then counted for 1 min/well. […]
(§4) Determination of kon and koff constants for each test compound. Each compound was first assessed in a pilot experiment to evaluate its effect on the kinetic binding of each receptor-radioligand pair. […] After washing the filters 5 times with 0.5 mL of ice-cold washing buffer, 50 μL of Microscint 20 (Packard) were added to the filters and the plates were incubated 15 min on an orbital shaker and then counted for 1 min/well.

Data set [2] concerns the target T2, human 5-HT1B receptor (Homo sapiens, UniProt P28222).
T2 construct: purchased Euroscreen; host or cells: CHO-K1
The description is as above. As to the method: as §1
5-HT1B Radioligand Binding Assay
as §2
Ligand: 5-CT (Tocris, 0458)
Determination of IC50 and Ki constant for each test compound. […] The samples were incubated for 60 min (or 4 hours for a second experiment on 5-HT2B receptors) at a temperature optimized for each receptor and then filtered over a filter plate. After washing the filters 5 times with 0.5 mL of ice-cold washing buffer, 50 μL of Microscint 20 (Packard) were added to the filters and the plates were incubated 15 min on an orbital shaker and then counted for 1 min/well. The test compounds were tested in duplicate at the nanomolar concentrations reported below in Table 5.
as §4

The target in data set [3] is T3, human D2L receptor (Homo sapiens, UniProt P14416).
T3 construct: purchased Euroscreen; host or cells: CHO-K1
T3 sequence (P14416 whole entry): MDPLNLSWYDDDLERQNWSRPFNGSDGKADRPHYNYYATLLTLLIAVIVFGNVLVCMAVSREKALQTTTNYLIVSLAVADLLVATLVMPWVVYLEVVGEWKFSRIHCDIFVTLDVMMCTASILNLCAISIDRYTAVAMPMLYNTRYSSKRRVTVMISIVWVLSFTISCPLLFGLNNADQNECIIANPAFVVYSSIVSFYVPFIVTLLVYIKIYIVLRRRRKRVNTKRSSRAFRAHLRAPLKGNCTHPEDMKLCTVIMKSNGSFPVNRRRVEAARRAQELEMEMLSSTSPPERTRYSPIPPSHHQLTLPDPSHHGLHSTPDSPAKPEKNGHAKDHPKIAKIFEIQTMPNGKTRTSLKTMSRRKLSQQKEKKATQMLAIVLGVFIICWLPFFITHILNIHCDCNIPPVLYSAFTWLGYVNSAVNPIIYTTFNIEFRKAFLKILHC
The data set is described as above. As to the method: as §1
D2L Radioligand Binding Assay
Assay buffer: 25 mM HEPES (pH 7.4), 5 mM MgCl2, 1 mM CaCl2, BSA protease free 0.5%
Washing buffer: 25 mM HEPES (pH 7.4), 5 mM MgCl2, 1 mM CaCl2
Membrane: recombinant CHO-K1-D2L membranes thawed on ice and diluted in assay buffer (2 μg/well)
Ligand: Risperidone (Tocris Bioscience, 2865) […]
as §3
Determination of kon and koff constants for each test compound. Each compound was first assessed in a pilot experiment to evaluate its effect on the kinetic binding of each receptor-radioligand pair. […] After washing the filters 5 times with 0.5 mL of ice-cold washing buffer, 50 μL of Microscint 20 (Packard) were added to the filters and the plates were incubated 15 min on an orbital shaker and then counted for 1 min/well. […]

For data set [4] the following is noted: cited from earlier work.
The conditions of data set [5]: subcutaneously, concentration 1.5 mM; cited from earlier work.

T2 sequence (P28222 whole entry): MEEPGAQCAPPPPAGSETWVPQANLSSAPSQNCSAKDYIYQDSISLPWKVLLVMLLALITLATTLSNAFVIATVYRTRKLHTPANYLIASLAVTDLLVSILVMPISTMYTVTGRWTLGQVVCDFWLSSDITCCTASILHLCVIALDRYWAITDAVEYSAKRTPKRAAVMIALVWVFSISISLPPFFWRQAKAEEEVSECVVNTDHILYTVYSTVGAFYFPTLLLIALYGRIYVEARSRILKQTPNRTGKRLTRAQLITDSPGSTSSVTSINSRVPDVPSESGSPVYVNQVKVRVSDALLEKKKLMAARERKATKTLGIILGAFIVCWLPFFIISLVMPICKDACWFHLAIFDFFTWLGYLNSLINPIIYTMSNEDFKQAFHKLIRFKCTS
T1 sequence (P28221 whole entry): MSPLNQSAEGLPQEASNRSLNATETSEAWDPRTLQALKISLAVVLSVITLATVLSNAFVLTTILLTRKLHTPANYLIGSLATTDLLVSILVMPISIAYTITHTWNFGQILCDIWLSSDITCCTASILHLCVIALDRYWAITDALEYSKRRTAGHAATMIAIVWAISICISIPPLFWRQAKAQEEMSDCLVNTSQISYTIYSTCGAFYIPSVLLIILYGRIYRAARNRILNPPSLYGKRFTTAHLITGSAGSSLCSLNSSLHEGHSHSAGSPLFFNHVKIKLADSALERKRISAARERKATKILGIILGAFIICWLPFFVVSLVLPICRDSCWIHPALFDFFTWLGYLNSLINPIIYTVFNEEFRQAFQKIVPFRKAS

Take `CN1C[C@H](C(=O)N[C@]2(C)O[C@@]3(O)[C@@H]4CCC(O)N4C(=O)[C@H](Cc4ccccc4)N3C2=O)C[C@@H]2c3cccc4[nH]cc(c34)C[C@H]21` (stereo partly shown) [8′-OH DHE, 8′-Hydroxy-Dihydroergotamine]: the figures for the “Avg Koff” value in data set [1], in data set [2] and in data set [3] were 0.000175 s⁻¹, 9.83e-05 s⁻¹ and 0.00127 s⁻¹, respectively. Moreover, the “concentration of 8′-OH DHE metabolite relative to parent DHE” value in data set [4] (previous studies) is on record as 5 to 7 times.

For `CN1C[C@H](C(=O)N[C@]2(C)O[C@@]3(O)[C@@H]4CCCN4C(=O)[C@H](Cc4ccccc4)N3C2=O)C[C@@H]2c3cccc4[nH]cc(c34)C[C@H]21` [DHE, Dihydroergotamine], the “fraction of administered dose extracted in the urine” value in data set [4] (IM administered dose) is reported as 6-7%. Moreover, in data set [4] (nasal administration of DHE), the “total DHE metabolites as share of plasma AUC” value was 20-30%. The “treated patients with nausea” value in data set [5] is about 16%.
